From patent US20210355121A1, “FUSED TRICYCLIC KRAS INHIBITORS” (Incyte Corporation, priority 2020, published 2021)
pIC50: −log10 of the molar value. Where two headings read alike, the source gives them in different places.

How the values were obtained:
KRAS G12C = KRAS G12C (Homo sapiens, UniProt P01116, G12C); experiment: KRAS G12C GDP-GTP exchange assay (bodipy-GDP for GppNHp, with SOS1); format: biochemical; conditions: 2.5 nM bodipy-loaded KRAS G12C, 2 hours pre-incubation with inhibitor, 2 hours after GppNHp-SOS1; read-out: G12C_exchange (KRAS_G12C exchange assay IC50)
Chain of KRAS G12C (P01116 1-188 isoform P01116-2 G12C): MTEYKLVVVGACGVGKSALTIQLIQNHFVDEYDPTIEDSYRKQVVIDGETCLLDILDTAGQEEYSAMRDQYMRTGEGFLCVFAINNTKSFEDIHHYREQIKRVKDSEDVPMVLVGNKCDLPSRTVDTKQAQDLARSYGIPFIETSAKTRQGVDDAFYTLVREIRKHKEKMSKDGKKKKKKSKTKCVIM
Summary of the method: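 Fluorescence nucleotide-exchange assay: bodipy-GDP-loaded KRAS (2.5 nM final) pre-incubated with inhibitor 2 h at ambient temperature, then 500 µM GppNHp plus 150 nM SOS1 added in pH 7.5 Hepes/MgCl2 buffer. Exchange read at ex 485/em 520 nm after 2 h (G12C), 4 h (G12D) or 3 h (G12V). IC50 from four-parameter logistic fit.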

[1] = system: MIA PaCa-2 (KRAS G12C) cells; experiment: KRAS_G12C cellular pERK HTRF assay; format: cell-based, human; conditions: phospho-ERK1/2 HTRF, 4 hours incubation, read-out: G12C_pERK (KRAS_G12C pERK assay IC50)
Summary of the method: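 MIA PaCa-2 (G12C) or G12D lines (A427, HPAF-II) in RPMI/10% FBS, treated with compound for 4 h (G12C) or 2 h (G12D) at 37 °C after overnight plating. Lysed, phospho-ERK1/2 detected by HTRF (665/620 nm). IC50 from percent inhibition versus log concentration.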

SMILES | pIC50 (KRAS G12C) | pIC50 ([1]; Homo sapiens, MIA PaCa-2) | pIC50 [1]
Cc1cc2[nH]ncc2c(-c2c(Cl)cc3c(nc(OC[C@@H]4CCCN4C)c4cnn([C@H]5CCN(C(=O)/C=C/CN(C)C)[C@H](CC#N)C5)c43)c2F)c1C (single isomer, unassigned) [Example 80a] | ≥ 7.00 | ≥ 7.00 | 
Cc1cc2c(nc(N3CC(C)(N(C)C)C3)c3cnn([C@H]4CCN(C(=O)/C=C/CN(C)C)[C@H](CC#N)C4)c32)c(F)c1-c1cccc2cccc(C#N)c12 (single isomer, unassigned) [Example 62a] | ≥ 7.00 | ≥ 7.00 | 
Cc1cc2[nH]ncc2c(-c2c(C)cc3c(nc(O[C@@H](C)[C@@H]4CCCN4C)c4cnn([C@H]5CCN(C(=O)/C=C/CF)[C@H](CC#N)C5)c43)c2F)c1C (single isomer, unassigned) [Example 67b] | ≥ 7.00 | ≥ 7.00 | 
C=C(F)C(=O)N1CC[C@H](n2ncc3c(N4CC(N(C)C)C4)nc4c(F)c(-c5c(C)c(Cl)cc6[nH]ncc56)c(Cl)cc4c32)C[C@H]1CC#N (single isomer, unassigned) [Example 8a] | ≥ 7.00 | ≥ 7.00 | 
C=CC(=O)N1CC[C@H](n2ncc3c(N4CC(N(C)C)C4)nc4c(F)c(-c5ccc(F)c6cccnc56)c(Cl)cc4c32)C[C@H]1CC#N (single isomer, unassigned) [Example 21b] | ≥ 7.00 |  | ≥ 7.00
Cc1cc2[nH]ncc2c(-c2c(C)cc3c(nc(O[C@@H](C)[C@@H]4CCCN4C)c4cnn([C@H]5CCN(C(=O)/C=C/CN(C)C)[C@H](CC#N)C5)c43)c2F)c1C (single isomer, unassigned) [Example 71b] | ≥ 7.00 | ≥ 7.00 | 
C=C(F)C(=O)N1CC[C@H](n2ncc3c(O[C@@H](C)[C@@H]4CCCN4C)nc4c(F)c(-c5cccc6cccc(C#N)c56)c(C)cc4c32)C[C@H]1CC#N (single isomer, unassigned) [Example 56b] | ≥ 7.00 | ≥ 7.00 | 
CC#CC(=O)N1CC[C@H](n2ncc3c(N4CC(N(C)C)C4)nc4c(F)c(-c5c(C)c(C)cc6[nH]ncc56)c(Cl)cc4c32)C[C@H]1CC#N (single isomer, unassigned) [Example 74a] | ≥ 7.00 | ≥ 7.00 | 
CC#CC(=O)N1CC[C@H](n2ncc3c(N4CC(N(C)C)C4)nc4c(F)c(-c5cccc(Cl)c5Cl)c(Cl)cc4c32)C[C@H]1CC#N (single isomer, unassigned) [Example 26a] | ≥ 7.00 | ≥ 7.00 | 
Cc1cc2[nH]ncc2c(-c2c(Cl)cc3c(nc(N4CC(N(C)C)C4)c4cnn([C@H]5CCN(C(=O)/C=C/CF)[C@H](CC#N)C5)c43)c2F)c1C (single isomer, unassigned) [Example 72a] | ≥ 7.00 | ≥ 7.00 | 
C=CC(=O)N1CC[C@H](n2ncc3c(N4CC(N(C)C)C4)nc4c(F)c(-c5c(C)c(Cl)cc6[nH]ncc56)c(Cl)cc4c32)C[C@H]1CC#N (single isomer, unassigned) [Example 3a] | ≥ 7.00 | ≥ 7.00 | 
C=CC(=O)N1CC[C@H](n2ncc3c(N4CC(N(C)C)C4)nc4c(F)c(-c5cccc(Cl)c5Cl)c(Cl)cc4c32)C[C@H]1CC#N (single isomer, unassigned) [Example 25b] | ≥ 7.00 |  | ≥ 7.00
COC/C=C/C(=O)N1CC[C@H](n2ncc3c(N4CC(N(C)C)C4)nc4c(F)c(-c5c(C)c(C)cc6[nH]ncc56)c(Cl)cc4c32)C[C@H]1CC#N (single isomer, unassigned) [Example 75a] | ≥ 7.00 | ≥ 7.00 | 
Cc1cccc(-c2c(Cl)cc3c(nc(N4CC(N(C)C)C4)c4cnn([C@H]5CCN(C(=O)/C=C/CN(C)C)[C@H](CC#N)C5)c43)c2F)c1Cl [Example 24, 2-((2S,4S)-4-(8-chloro-7-(2-chloro-3-methylphenyl)-4-(3-(dimethylamino)azetidin-1-yl)-6-fluoro-1H-pyrazolo[4,3-c]quinolin-1-yl)-1-((E)-4-(dimethylamino)but-2-enoyl)piperidin-2-yl)acetonitrile] | ≥ 7.00 | ≥ 7.00 | 
CC#CC(=O)N1CC[C@H](n2ccc3c(OC[C@@H]4CCCN4C)nc4c(F)c(-c5c(C)c(C)cc6[nH]ncc56)c(Cl)cc4c32)C[C@H]1CC#N (single isomer, unassigned) [Example 90a] | ≥ 7.00 | ≥ 7.00 | 
C=CC(=O)N1CC[C@H](n2ncc3c(N4CC(N(C)C)C4)nc4c(F)c(-c5cccc(Cl)c5Cl)c(Cl)cc4c32)C[C@H]1CC#N (single isomer, unassigned) [Example 25a] | ≥ 7.00 | ≥ 7.00 | 
COC/C=C/C(=O)N1CC[C@H](n2ncc3c(N4CC(C)(N(C)C)C4)nc4c(F)c(-c5cccc6cccc(C#N)c56)c(C)cc4c32)C[C@H]1CC#N (single isomer, unassigned) [Example 61a] | ≥ 7.00 | ≥ 7.00 | 
COC/C=C/C(=O)N1CC[C@H](n2ncc3c(OC[C@@H]4CCCN4C)nc4c(F)c(-c5c(C)c(Cl)cc6[nH]ncc56)c(Cl)cc4c32)C[C@H]1CC#N (single isomer, unassigned) [Example 19a] | ≥ 7.00 | ≥ 7.00 | 

Next, values leading:

pIC50 (KRAS G12C) | pIC50 ([1]; Homo sapiens, MIA PaCa-2) | pIC50 [1] | SMILES
≥ 7.00 | ≥ 7.00 |  | C=CC(=O)N1CC[C@H](n2ncc3c(OC[C@@H]4CCCN4C)nc4c(F)c(-c5cccc(C)c5C(F)(F)F)c(Cl)cc4c32)C[C@H]1CC#N [Example 28, 2-((2S,4S)-1-acryloyl-4-(8-chloro-6-fluoro-7-(3-methyl-2-(trifluoromethyl)phenyl)-4-(((S)-1-methylpyrrolidin-2-yl)methoxy)-1H-pyrazolo[4,3-c]quinolin-1-yl)piperidin-2-yl)acetonitrile]
≥ 7.00 | ≥ 7.00 |  | C=CC(=O)N1CC[C@H](n2ncc3c(N4CC(N(C)C)C4)nc4c(F)c(-c5cncc6ccccc56)c(Cl)cc4c32)C[C@H]1CC#N [Example 22, 2-((2S,4S)-1-acryloyl-4-(8-chloro-4-(3-(dimethylamino)azetidin-1-yl)-6-fluoro-7-(isoquinolin-4-yl)-1H-pyrazolo[4,3-c]quinolin-1-yl)piperidin-2-yl)acetonitrile]
≥ 7.00 | ≥ 7.00 |  | CC#CC(=O)N1CC[C@H](n2ncc3c(O[C@@H](C)[C@@H]4CCCN4C)nc4c(F)c(-c5cccc6cccc(Cl)c56)c(Cl)cc4c32)C[C@H]1CC#N [Example 87, 2-((2S,4S)-1-(but-2-ynoyl)-4-(8-chloro-7-(8-chloronaphthalen-1-yl)-6-fluoro-4-((S)-1-((S)-1-methylpyrrolidin-2-yl)ethoxy)-1H-pyrazolo[4,3-c]quinolin-1-yl)piperidin-2-yl)acetonitrile]
≥ 7.00 | ≥ 7.00 |  | COC/C=C/C(=O)N1CC[C@H](n2ncc3c(N4CC(C)(N(C)C)C4)nc4c(F)c(-c5c(C)c(C)cc6[nH]ncc56)c(Cl)cc4c32)C[C@H]1CC#N (single isomer, unassigned) [Example 83a]
≥ 7.00 | ≥ 7.00 |  | Cc1cc2c(nc(O[C@@H](C)[C@@H]3CCCN3C)c3cnn([C@H]4CCN(C(=O)/C=C/CF)[C@H](CC#N)C4)c32)c(F)c1-c1cccc2cccc(C#N)c12 (single isomer, unassigned) [Example 55b]
≥ 7.00 | ≥ 7.00 |  | C[C@H](Oc1nc2c(F)c(-c3cccc4cccc(Cl)c34)c(Cl)cc2c2c1cnn2[C@H]1CCN(C(=O)/C=C/CF)[C@H](CC#N)C1)[C@@H]1CCCN1C [Example 85, 2-((2S,4S)-4-(8-chloro-7-(8-chloronaphthalen-1-yl)-6-fluoro-4-((S)-1-((S)-1-methylpyrrolidin-2-yl)ethoxy)-1H-pyrazolo[4,3-c]quinolin-1-yl)-1-((E)-4-fluorobut-2-enoyl)piperidin-2-yl)acetonitrile]
≥ 7.00 | ≥ 7.00 |  | C=C(F)C(=O)N1CC[C@H](n2ncc3c(N4CC(C)(N(C)C)C4)nc4c(F)c(-c5c(C)c(Cl)cc6[nH]ncc56)c(Cl)cc4c32)C[C@H]1CC#N (single isomer, unassigned) [Example 15a]
≥ 7.00 | ≥ 7.00 |  | CC#CC(=O)N1CC[C@H](n2ncc3c(N4CC(C)(N(C)C)C4)nc4c(F)c(-c5c(C)c(C)cc6[nH]ncc56)c(Cl)cc4c32)C[C@H]1CC#N (single isomer, unassigned) [Example 82a]
≥ 7.00 | ≥ 7.00 |  | C=C(F)C(=O)N1CC[C@H](n2ncc3c(N4CC(C)(N(C)C)C4)nc4c(F)c(-c5c(C)c(C)cc6[nH]ncc56)c(Cl)cc4c32)C[C@H]1CC#N (single isomer, unassigned) [Example 81a]
